Measurements taken from patent US7674801B2 (AstraZeneca AB, priority 2006, dated 2010).
Converted amounts (≈) assume the structure as drawn.

Assays:
[1] = molecular target: S. aureus (SAU) GyrB ATPase (Staphylococcus aureus, UniProt P0A0K8); assay: S. aureus GyrB ATPase inhibition, ammonium molybdate/malachite green phosphate detection assay; format: biochemical; settings: read-out: S. aureus (SAU) GyrB ATPase % Inhibition, compound concentration 12.5 μM
Summary of the method: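 Phosphate from ATP hydrolysis (500 μM ATP) read as malachite green/molybdate absorbance at 650 nm after acid quench. Reaction: 1.25 nM S. aureus GyrB plus 1.25 nM E. coli GyrA, sheared DNA, Hepes pH 7.5 with Mg2+. IC50 fitted over 10 concentrations, normalised to DMSO (2%) and novobiocin (2 μM) controls.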

Streptococcus pneumoniae = assay: Bacterial susceptibility testing in liquid media (MIC); format: cell-based; settings: 37° C., 24 hrs
Description: Compounds were tested for antimicrobial activity by susceptibility testing in liquid media. Compounds were dissolved in dimethylsulfoxide and tested in 10 doubling dilutions in the susceptibility assays. The organisms used in the assay were grown overnight on suitable agar media and then suspended in a liquid medium appropriate for the growth of the organism. The suspension was a 0.5 McFarland and a further 1 in 10 dilution was made into the same liquid medium to prepare the final organism suspension in 100 μL. Plates were incubated under appropriate conditions at 37° C. for 24 hrs prior to reading. The Minimum Inhibitory Concentration was determined as the lowest drug concentration able to reduce growth by 80% or more.

S. aureus (SAU) GyrB ATPase, sequence (P0A0K8 whole entry): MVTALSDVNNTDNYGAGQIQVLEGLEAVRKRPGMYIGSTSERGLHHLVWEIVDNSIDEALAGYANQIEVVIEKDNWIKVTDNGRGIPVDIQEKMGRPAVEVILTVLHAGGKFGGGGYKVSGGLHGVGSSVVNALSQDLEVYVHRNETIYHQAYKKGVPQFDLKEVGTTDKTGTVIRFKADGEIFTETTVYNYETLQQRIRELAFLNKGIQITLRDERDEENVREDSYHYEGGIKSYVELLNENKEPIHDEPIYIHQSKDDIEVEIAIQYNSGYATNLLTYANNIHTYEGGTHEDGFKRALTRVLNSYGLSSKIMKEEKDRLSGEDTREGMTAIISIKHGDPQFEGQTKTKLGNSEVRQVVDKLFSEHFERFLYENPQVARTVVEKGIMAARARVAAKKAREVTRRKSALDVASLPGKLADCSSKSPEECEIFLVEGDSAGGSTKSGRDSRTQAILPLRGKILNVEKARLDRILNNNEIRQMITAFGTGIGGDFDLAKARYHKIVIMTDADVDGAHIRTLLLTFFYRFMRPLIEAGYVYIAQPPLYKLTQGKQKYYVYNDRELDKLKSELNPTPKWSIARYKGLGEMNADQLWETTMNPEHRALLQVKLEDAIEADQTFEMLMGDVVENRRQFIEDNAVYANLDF
S. aureus (SAU) GyrB ATPase, sequence (P0AES4 whole entry, further chain): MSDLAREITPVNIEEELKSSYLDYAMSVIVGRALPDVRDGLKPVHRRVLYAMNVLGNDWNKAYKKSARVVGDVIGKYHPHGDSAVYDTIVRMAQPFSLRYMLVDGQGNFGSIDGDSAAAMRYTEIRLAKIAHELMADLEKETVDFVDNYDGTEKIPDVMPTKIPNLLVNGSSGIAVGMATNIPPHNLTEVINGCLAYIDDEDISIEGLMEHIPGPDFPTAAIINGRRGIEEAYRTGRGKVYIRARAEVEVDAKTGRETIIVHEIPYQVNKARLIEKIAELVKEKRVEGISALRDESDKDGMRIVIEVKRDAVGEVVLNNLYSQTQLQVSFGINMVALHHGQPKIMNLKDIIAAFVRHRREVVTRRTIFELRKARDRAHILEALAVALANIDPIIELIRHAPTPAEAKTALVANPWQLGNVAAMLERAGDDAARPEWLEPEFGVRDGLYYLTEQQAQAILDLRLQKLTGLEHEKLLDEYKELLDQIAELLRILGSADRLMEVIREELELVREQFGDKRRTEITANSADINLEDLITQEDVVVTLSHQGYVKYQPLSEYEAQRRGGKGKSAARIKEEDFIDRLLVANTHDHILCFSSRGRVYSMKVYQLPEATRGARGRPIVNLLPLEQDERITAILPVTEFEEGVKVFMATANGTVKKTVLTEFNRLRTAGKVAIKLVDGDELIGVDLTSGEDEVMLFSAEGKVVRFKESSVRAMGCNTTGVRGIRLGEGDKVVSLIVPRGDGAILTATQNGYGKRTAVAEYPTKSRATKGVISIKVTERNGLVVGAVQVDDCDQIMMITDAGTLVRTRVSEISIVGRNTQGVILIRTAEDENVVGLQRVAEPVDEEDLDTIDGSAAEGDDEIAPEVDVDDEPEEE

## CCCCNC(=O)c1nc(-c2ccc(NC(=O)NCC)nc2)sc1C(=O)O [Example 26, 4-[(Butylamino)carbonyl]-2-(6-{[(ethylamino)carbonyl]amino}pyridin-3-yl)-1,3-thiazole-5-carboxylic acid]
[1]
  inhibition at 12.5 µM: 70.5%
Streptococcus pneumoniae
  MIC (lowest concentration reducing growth by 80% or more): 2.0 µg/mL (≈ 5.11 µM)
